Test results from patent publication US6914045B2, “Glycopeptide antibiotics” (Wyeth Holdings Corporation, priority 2001, dated 2005).
In brackets after ≈: the same amount, converted by molar mass.

Experiments:
Assay in all cases: in vitro antibacterial evaluation, MIC by broth dilution
Assay type in all cases: cell-based
Staphylococcus sp. = details: broth dilution, 18 hours at 35° C.
Method in brief: (§1)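 Broth dilution per NCCLS standard M7-A2 in Muller-Hinton II […], with an inoculum of 5×10^5 CFU/mL and antibiotic spanning 64-0.06 μg/mL. The MIC is the lowest concentration that inhibits growth of the organism.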

Enterococcus sp. = details: broth dilution, 18 hours at 35° C.
Method in brief: as §1

Escherichia coli = details: 18 hours at 35° C.
Method in brief: as §1

Streptococcus sp. = details: broth dilution, 18 hours at 35° C.
Method in brief: as §1

[1] = Enterococcus faecalis (ATCC 29212)
[2] = Enterococcus faecalis (GC 4553)
[3] = Enterococcus faecalis (GC 4554)

Compound: CC(C)CC(=O)OC1C(OC2C(CO)OC(Oc3ccc(CC4NC(=O)C(C(C)c5ccc(F)cc5)NC(=O)CNC(=O)C(CO)NC(=O)C(C(O)C5CNC(=N)N5C5OC(CO)C(O)C(O)C5O)NC(=O)C(C(O)C5CNC(=N)N5)NC4=O)cc3)C(O)C2O)OC(CO)C(O)C1O (stereo not drawn) [Example 261b, Cyclo[glycyl-4-fluoro-β-methylphenylalanyl-O-[4-O-[2-O-(3-methylbutanoyl)hexopyranosyl]-hexopyranosyl]tyrosyl-3-(2-iminoimidazolidin-4-yl)seryl-3-(3-hexopyranosyl-2-imino-imidazolidin-4-yl)serylseryl]]
- MIC Coagulase Negative Staphylococcus (GC 4547) (Staphylococcus sp.): 8 µg/mL (≈ 5.72 µM)
- MIC Coagulase Negative Staphylococcus (GC 4548) (Staphylococcus sp.): 4 µg/mL (≈ 2.86 µM)
- MIC Coagulase Negative Staphylococcus (GC 4549) (Staphylococcus sp.): 4 µg/mL (≈ 2.86 µM)
- MIC Coagulase Negative Staphylococcus (GC 4551) (Staphylococcus sp.): 8 µg/mL (≈ 5.72 µM)
- MIC Staphylococcus aureus (ATCC 29213) (Staphylococcus sp.): 8 µg/mL (≈ 5.72 µM)
- MIC Staphylococcus aureus (GC 1131) (Staphylococcus sp.): 16 µg/mL (≈ 11.4 µM)
- MIC Staphylococcus aureus (GC 4541) (Staphylococcus sp.): 16 µg/mL (≈ 11.4 µM)
- MIC Staphylococcus aureus (GC 4542) (Staphylococcus sp.): 16 µg/mL (≈ 11.4 µM)
- MIC Staphylococcus aureus (GC 4544) (Staphylococcus sp.): 8 µg/mL (≈ 5.72 µM)
- MIC Staphylococcus aureus (GC 4545) (Staphylococcus sp.): 16 µg/mL (≈ 11.4 µM)
- MIC Staphylococcus aureus-SMITH (GC 4543) (Staphylococcus sp.): 8 µg/mL (≈ 5.72 µM)
- MIC Staphylococcus haemolyticus (GC 4546) (Staphylococcus sp.): 8 µg/mL (≈ 5.72 µM)
- MIC Staphylococcus aureus (ATCC 29213) (Staphylococcus sp.; strain ATCC 29213): 8 µg/mL (≈ 5.72 µM)
- MIC Staphylococcus aureus (GC 1131) (Staphylococcus sp.; strain GC 1131): 16 µg/mL (≈ 11.4 µM)
- MIC Staphylococcus aureus (GC 4541) (Staphylococcus sp.; strain GC 4541): 16 µg/mL (≈ 11.4 µM)
- MIC Staphylococcus aureus (GC 4542) (Staphylococcus sp.; strain GC 4542): 16 µg/mL (≈ 11.4 µM)
- MIC Staphylococcus aureus (GC 4544) (Staphylococcus sp.; strain GC 4544): 8 µg/mL (≈ 5.72 µM)
- MIC Staphylococcus aureus (GC 4545) (Staphylococcus sp.; strain GC 4545): 16 µg/mL (≈ 11.4 µM)
- MIC Enterococcus avium (GC 4558) (Enterococcus sp.; Enterococcus avium (GC 4558)): 64 µg/mL (≈ 45.8 µM)
- MIC Enterococcus faecalis (ATCC 29212) (Enterococcus sp.; [1]): >64 µg/mL
- MIC Enterococcus faecalis (GC 4553) (Enterococcus sp.; [2]): 64 µg/mL (≈ 45.8 µM)
- MIC Enterococcus faecalis (GC 4554) (Enterococcus sp.; [3]): >64 µg/mL
- MIC Enterococcus faecium (GC 2243) (Enterococcus sp.; Enterococcus faecium (GC 2243)): >64 µg/mL
- MIC Enterococcus faecium (GC 4556) (Enterococcus sp.; Enterococcus faecium (GC 4556)): 64 µg/mL (≈ 45.8 µM)
- MIC Enterococcus faecium (GC 4557) (Enterococcus sp.; Enterococcus faecium (GC 4557)): 16 µg/mL (≈ 11.4 µM)
- MIC Enterococcus faecalis (ATCC 29212) (Enterococcus sp.; strain ATCC 29212): >64 µg/mL
- MIC Enterococcus faecalis (GC 2242) (Enterococcus sp.; strain GC 2242): 64 µg/mL (≈ 45.8 µM)
- MIC Enterococcus faecium (GC 2243) (Enterococcus sp.; strain GC 2243): >64 µg/mL
- MIC Enterococcus faecalis (GC 4552) (Enterococcus sp.; strain GC 4552): 64 µg/mL (≈ 45.8 µM)
- MIC Enterococcus faecalis (GC 4553) (Enterococcus sp.; strain GC 4553): 64 µg/mL (≈ 45.8 µM)
- MIC Enterococcus faecalis (GC 4554) (Enterococcus sp.; strain GC 4554): >64 µg/mL
- MIC Enterococcus faecium (GC 4556) (Enterococcus sp.; strain GC 4556): 64 µg/mL (≈ 45.8 µM)
- MIC Enterococcus faecium (GC 4557) (Enterococcus sp.; strain GC 4557): 16 µg/mL (≈ 11.4 µM)
- MIC Enterococcus avium (GC 4558) (Enterococcus sp.; strain GC 4558): 64 µg/mL (≈ 45.8 µM)
- MIC Escherichia coli (ATCC 25922) (Escherichia coli; Escherichia coli (ATCC 25922)): >64 µg/mL
- MIC Escherichia coli (GC 4559) (Escherichia coli; Escherichia coli (GC 4559)): >64 µg/mL
- MIC Escherichia coli (GC 4560) (Escherichia coli; Escherichia coli (GC 4560)): 4 µg/mL (≈ 2.86 µM)
- MIC Streptococcus agalactiae (GC 4564) (Streptococcus sp.; strain GC 4564): 8 µg/mL (≈ 5.72 µM)
- MIC Streptococcus pyogenes (ID-3187) (Streptococcus sp.; strain ID-3187): 4 µg/mL (≈ 2.86 µM)

Compound: CC(c1ccccc1)C1NC(=O)CNC(=O)C(CO)NC(=O)C(C(O)C2CNC(=N)N2C2OC(CO)C(O)C(O)C2O)NC(=O)C(C(O)C2CNC(=N)N2)NC(=O)C(Cc2ccc(OC3OC(CO)C(OC4OC5COC(CCc6ccccc6)OC5C(O)C4O)C(O)C3O)cc2)NC1=O (stereo not shown) [Example 124]
- MIC Staphylococcus aureus (ATCC 29213) (Staphylococcus sp.): 2 µg/mL (≈ 1.42 µM)
- MIC Staphylococcus aureus (GC 1131) (Staphylococcus sp.): 2 µg/mL (≈ 1.42 µM)
- MIC Staphylococcus aureus (GC 3051) (Staphylococcus sp.): 2 µg/mL (≈ 1.42 µM)
- MIC Staphylococcus aureus (GC 3053) (Staphylococcus sp.): 2 µg/mL (≈ 1.42 µM)
- MIC Staphylococcus aureus (GC 4541) (Staphylococcus sp.): 2 µg/mL (≈ 1.42 µM)
- MIC Staphylococcus aureus (GC 4542) (Staphylococcus sp.): 1 µg/mL (≈ 0.708 µM)
- MIC Staphylococcus aureus (GC 4544) (Staphylococcus sp.): 2 µg/mL (≈ 1.42 µM)
- MIC Staphylococcus aureus (GC 4545) (Staphylococcus sp.): 2 µg/mL (≈ 1.42 µM)
- MIC Staphylococcus aureus (GC 1131) (Staphylococcus sp.; inoculum 5×10^5 CFU/mL, strain GC 1131): 2 µg/mL (≈ 1.42 µM)
- MIC Staphylococcus aureus (ATCC 29213) (Staphylococcus sp.; strain ATCC 29213): 2 µg/mL (≈ 1.42 µM)
- MIC Staphylococcus aureus (GC 3051) (Staphylococcus sp.; strain GC 3051): 2 µg/mL (≈ 1.42 µM)
- MIC Staphylococcus aureus (GC 3053) (Staphylococcus sp.; strain GC 3053): 2 µg/mL (≈ 1.42 µM)
- MIC Staphylococcus aureus (GC 4541) (Staphylococcus sp.; strain GC 4541): 2 µg/mL (≈ 1.42 µM)
- MIC Staphylococcus aureus (GC 4542) (Staphylococcus sp.; strain GC 4542): 1 µg/mL (≈ 0.708 µM)
- MIC Staphylococcus aureus-SMITH (GC 4543) (Staphylococcus sp.; strain GC 4543): 2 µg/mL (≈ 1.42 µM)
- MIC Staphylococcus aureus (GC 4544) (Staphylococcus sp.; strain GC 4544): 2 µg/mL (≈ 1.42 µM)
- MIC Staphylococcus aureus (GC 4545) (Staphylococcus sp.; strain GC 4545): 2 µg/mL (≈ 1.42 µM)
- MIC Staphylococcus haemolyticus (GC 4546) (Staphylococcus sp.; strain GC 4546): 2 µg/mL (≈ 1.42 µM)
- MIC Coagulase Negative Staphylococcus (GC 4547) (Staphylococcus sp.; strain GC 4547): 2 µg/mL (≈ 1.42 µM)
- MIC Coagulase Negative Staphylococcus (GC 4548) (Staphylococcus sp.; strain GC 4548): 1 µg/mL (≈ 0.708 µM)
- MIC Coagulase Negative Staphylococcus (GC 4549) (Staphylococcus sp.; strain GC 4549): 1 µg/mL (≈ 0.708 µM)
- MIC Coagulase Negative Staphylococcus (GC 4551) (Staphylococcus sp.; strain GC 4551): 2 µg/mL (≈ 1.42 µM)
- MIC Coagulase Negative Staphylococcus (GC 6257) (Staphylococcus sp.; strain GC 6257): 1 µg/mL (≈ 0.708 µM)
- MIC Staphylococcus aureus-SMITH (GC 4543) (Staphylococcus sp.; strain SMITH GC 4543): 2 µg/mL (≈ 1.42 µM)
- MIC Enterococcus avium (GC 4558) (Enterococcus sp.; Enterococcus avium (GC 4558)): 0.25 µg/mL (≈ 0.177 µM)
- MIC Enterococcus faecalis (ATCC 29212) (Enterococcus sp.; [1]): 4 µg/mL (≈ 2.83 µM)
- MIC Enterococcus faecalis (GC 2242) (Enterococcus sp.; Enterococcus faecalis (GC 2242)): 4 µg/mL (≈ 2.83 µM)
- MIC Enterococcus faecalis (GC 2691) (Enterococcus sp.; Enterococcus faecalis (GC 2691)): 4 µg/mL (≈ 2.83 µM)
- MIC Enterococcus faecalis (GC 3059) (Enterococcus sp.; Enterococcus faecalis (GC 3059)): 4 µg/mL (≈ 2.83 µM)
- MIC Enterococcus faecalis (GC 4552) (Enterococcus sp.; Enterococcus faecalis (GC 4552)): 4 µg/mL (≈ 2.83 µM)
- MIC Enterococcus faecalis (GC 4553) (Enterococcus sp.; [2]): 4 µg/mL (≈ 2.83 µM)
- MIC Enterococcus faecalis (GC 4554) (Enterococcus sp.; [3]): 4 µg/mL (≈ 2.83 µM)
- MIC Enterococcus faecalis (GC 6189) (Enterococcus sp.; Enterococcus faecalis (GC 6189)): 4 µg/mL (≈ 2.83 µM)
- MIC Enterococcus faecium (GC 2243) (Enterococcus sp.; Enterococcus faecium (GC 2243)): 4 µg/mL (≈ 2.83 µM)
- MIC Enterococcus faecium (GC 4556) (Enterococcus sp.; Enterococcus faecium (GC 4556)): 4 µg/mL (≈ 2.83 µM)
- MIC Enterococcus faecium (GC 4557) (Enterococcus sp.; Enterococcus faecium (GC 4557)): 1 µg/mL (≈ 0.708 µM)
- MIC Enterococcus faecalis (ATCC 29212) (Enterococcus sp.; strain ATCC 29212): 4 µg/mL (≈ 2.83 µM)
- MIC Enterococcus faecalis (GC 2242) (Enterococcus sp.; strain GC 2242): 4 µg/mL (≈ 2.83 µM)
- MIC Enterococcus faecium (GC 2243) (Enterococcus sp.; strain GC 2243): 4 µg/mL (≈ 2.83 µM)
- MIC Enterococcus faecalis (GC 2691) (Enterococcus sp.; strain GC 2691): 4 µg/mL (≈ 2.83 µM)
- MIC Enterococcus faecalis (GC 3059) (Enterococcus sp.; strain GC 3059): 4 µg/mL (≈ 2.83 µM)
- MIC Enterococcus faecalis (GC 4552) (Enterococcus sp.; strain GC 4552): 4 µg/mL (≈ 2.83 µM)
- MIC Enterococcus faecalis (GC 4553) (Enterococcus sp.; strain GC 4553): 4 µg/mL (≈ 2.83 µM)
- MIC Enterococcus faecalis (GC 4554) (Enterococcus sp.; strain GC 4554): 4 µg/mL (≈ 2.83 µM)
- MIC Enterococcus faecium (GC 4556) (Enterococcus sp.; strain GC 4556): 4 µg/mL (≈ 2.83 µM)
- MIC Enterococcus faecium (GC 4557) (Enterococcus sp.; strain GC 4557): 1 µg/mL (≈ 0.708 µM)
- MIC Enterococcus avium (GC 4558) (Enterococcus sp.; strain GC 4558): 0.25 µg/mL (≈ 0.177 µM)
- MIC Enterococcus faecalis (GC 6189) (Enterococcus sp.; strain GC 6189): 4 µg/mL (≈ 2.83 µM)
- MIC Escherichia coli (ATCC 25922) (Escherichia coli; strain ATCC 25922): 32 µg/mL (≈ 22.7 µM)
- MIC Escherichia coli (GC 4559) (Escherichia coli; strain GC 4559): 32 µg/mL (≈ 22.7 µM)
- MIC Escherichia coli (GC 4560) (Escherichia coli; strain GC 4560): 1 µg/mL (≈ 0.708 µM)
- MIC Streptococcus agalactiae (GC 4564) (Streptococcus sp.; Streptococcus agalactiae (GC 4564)): 1 µg/mL (≈ 0.708 µM)
- MIC Streptococcus pneumoniae (ATCC 6301) (Streptococcus sp.; Streptococcus pneumoniae (ATCC 6301)): <0.06 µg/mL
- MIC Streptococcus pneumoniae (GC 1894) (Streptococcus sp.; Streptococcus pneumoniae (GC 1894)): <0.06 µg/mL
- MIC Streptococcus pneumoniae (GC 4565) (Streptococcus sp.; Streptococcus pneumoniae (GC 4565)): <0.06 µg/mL
- MIC Streptococcus pyogenes (GC 4563) (Streptococcus sp.; Streptococcus pyogenes (GC 4563)): 0.12 µg/mL (≈ 0.085 µM)
- MIC Streptococcus pneumoniae (ATCC 6301) (Streptococcus sp.; strain ATCC 6301): <0.06 µg/mL
- MIC Streptococcus pneumoniae (GC 1894) (Streptococcus sp.; strain GC 1894): <0.06 µg/mL
- MIC Streptococcus pyogenes (GC 4563) (Streptococcus sp.; strain GC 4563): 0.12 µg/mL (≈ 0.085 µM)
- MIC Streptococcus agalactiae (GC 4564) (Streptococcus sp.; strain GC 4564): 1 µg/mL (≈ 0.708 µM)
- MIC Streptococcus pneumoniae (GC 4565) (Streptococcus sp.; strain GC 4565): <0.06 µg/mL
